# Biological target: T1, NfrB (Escherichia coli, UniProt P0AFA5)
# T1 construct: soluble MshEN domain, NfrB^414-745
# Assay: microscale thermophoresis with purified protein; DRaCALA with […]-c-di-GMP and competition by unlabeled c-di-GMP
# Assay type: binding
# T1 sequence (P0AFA5 414-745): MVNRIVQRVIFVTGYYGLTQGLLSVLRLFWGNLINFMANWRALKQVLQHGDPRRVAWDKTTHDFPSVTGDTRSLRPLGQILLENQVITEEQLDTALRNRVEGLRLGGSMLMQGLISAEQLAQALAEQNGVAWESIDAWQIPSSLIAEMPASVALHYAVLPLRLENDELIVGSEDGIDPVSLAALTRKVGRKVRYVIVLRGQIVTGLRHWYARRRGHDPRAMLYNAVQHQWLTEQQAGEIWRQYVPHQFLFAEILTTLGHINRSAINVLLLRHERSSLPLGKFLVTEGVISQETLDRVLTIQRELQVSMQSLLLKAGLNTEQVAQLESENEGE
smiles,measurement,value
Nc1nc2c(ncn2[C@@H]2O[C@@H]3CO[P@](=O)(O)O[C@H]4[C@@H](O)[C@H](n5cnc6c(=O)[nH]c(N)nc65)O[C@@H]4CO[P@](=O)(O)O[C@H]3[C@H]2O)c(=O)[nH]1 [c-di-GMP],Kd,1 ± 0.35 µM
